From patent US20240270751A1, “Pyrazolopyridinone Compounds” (BeiGene Ltd., priority 2021, published 2024)

Key:
DGKζ = DGKζ (Homo sapiens (Human), UniProt Q13574); assay: Biochemical DGK IC50 assay, DGKζ ADP-Glo assay; details: 0.5 nM enzyme, 140 μM ATP, 80 μM DAG; read-out: DGKζ ADP-Glo assay IC50
How it was run: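 Full-length human DGKζ, His-TEV tagged and purified from baculovirus-infected Sf9 cells, assayed by ADP-Glo with DAG/PS lipid micelle substrate prepared in 25 mM HEPES pH 7.0 with octyl glucoside. Final compound concentrations spanned 1.55–10000 nM or 23.3–150000 nM.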

DGKα = DGKα (Homo sapiens (Human), UniProt P23743); assay: Biochemical DGK IC50 assay, DGKα ADP-Glo assay; details: 7.5 nM enzyme, 140 μM ATP, 80 μM DAG
Sequence of DGKα (P23743 whole entry): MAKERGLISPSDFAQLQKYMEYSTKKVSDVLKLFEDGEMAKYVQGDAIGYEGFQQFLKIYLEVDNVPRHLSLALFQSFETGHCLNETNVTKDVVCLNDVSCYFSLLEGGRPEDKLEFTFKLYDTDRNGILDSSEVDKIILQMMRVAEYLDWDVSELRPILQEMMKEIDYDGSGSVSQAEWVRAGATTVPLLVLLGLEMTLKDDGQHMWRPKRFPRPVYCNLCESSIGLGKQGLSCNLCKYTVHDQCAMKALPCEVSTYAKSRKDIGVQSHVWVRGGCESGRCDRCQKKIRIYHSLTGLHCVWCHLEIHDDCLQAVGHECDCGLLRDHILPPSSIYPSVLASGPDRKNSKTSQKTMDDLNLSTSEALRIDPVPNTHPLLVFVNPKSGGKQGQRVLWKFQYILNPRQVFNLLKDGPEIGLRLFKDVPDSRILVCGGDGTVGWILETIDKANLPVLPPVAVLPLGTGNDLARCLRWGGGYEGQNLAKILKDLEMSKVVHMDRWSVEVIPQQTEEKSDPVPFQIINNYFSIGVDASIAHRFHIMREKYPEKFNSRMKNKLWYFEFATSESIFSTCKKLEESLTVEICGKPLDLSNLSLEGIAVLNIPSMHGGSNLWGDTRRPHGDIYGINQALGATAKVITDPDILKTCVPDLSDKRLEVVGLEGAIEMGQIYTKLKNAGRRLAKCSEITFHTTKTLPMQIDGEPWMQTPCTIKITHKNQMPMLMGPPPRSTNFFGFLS
How it was run: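 ADP-Glo read-out with full-length DGKα on DAG/PS lipid micelle substrate in 25 mM HEPES pH 7.0, 0.5 mM EDTA, 160 mM octyl β-D-glucopyranoside. Compound final concentrations spanned 1.55˜10000 nM or 23.3˜150000 nM.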

Sequence of DGKζ (Q13574 other isoform, or with tags, fused parts or gaps): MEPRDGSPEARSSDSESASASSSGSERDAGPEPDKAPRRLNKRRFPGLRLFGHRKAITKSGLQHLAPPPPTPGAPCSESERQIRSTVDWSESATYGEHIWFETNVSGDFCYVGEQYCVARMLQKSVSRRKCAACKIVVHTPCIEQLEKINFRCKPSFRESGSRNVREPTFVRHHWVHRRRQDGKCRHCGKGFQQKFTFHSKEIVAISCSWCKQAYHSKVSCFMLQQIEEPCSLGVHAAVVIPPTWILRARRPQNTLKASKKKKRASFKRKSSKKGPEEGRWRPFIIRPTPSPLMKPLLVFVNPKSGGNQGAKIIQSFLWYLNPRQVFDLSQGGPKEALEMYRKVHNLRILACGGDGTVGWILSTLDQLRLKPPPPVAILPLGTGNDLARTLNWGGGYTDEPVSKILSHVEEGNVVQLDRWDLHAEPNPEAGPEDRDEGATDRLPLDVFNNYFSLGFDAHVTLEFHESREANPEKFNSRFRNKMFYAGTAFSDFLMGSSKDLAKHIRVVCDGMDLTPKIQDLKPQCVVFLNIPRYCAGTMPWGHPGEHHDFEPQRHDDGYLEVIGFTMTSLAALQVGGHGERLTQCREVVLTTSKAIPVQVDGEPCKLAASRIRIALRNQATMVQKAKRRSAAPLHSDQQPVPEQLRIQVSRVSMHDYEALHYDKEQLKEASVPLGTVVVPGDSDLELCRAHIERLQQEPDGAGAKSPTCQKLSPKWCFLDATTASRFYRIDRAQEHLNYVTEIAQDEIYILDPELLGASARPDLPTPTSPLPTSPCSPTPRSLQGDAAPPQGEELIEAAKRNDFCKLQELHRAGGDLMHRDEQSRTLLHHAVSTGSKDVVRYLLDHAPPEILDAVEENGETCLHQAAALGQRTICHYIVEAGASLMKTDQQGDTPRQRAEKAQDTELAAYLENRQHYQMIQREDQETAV

IC50 (DGKζ) [nM]	IC50 (DGKα) [nM]	SMILES
4240	1580	CC[C@H]1CN(C(C)c2ccc(C)nc2)[C@H](CC)CN1c1cc(=O)n(C)c2cn(CC#N)nc12 (single isomer, unassigned) [Compound A349b]
167	274	CC[C@H]1CN(C(C)c2ccc(C(F)F)nc2)[C@H](CC)CN1c1cc(=O)n(C)c2cn(CC#N)nc12 (single isomer, unassigned) [Compound A351a]
190	32	CC[C@H]1CN(C(C)c2ccc(F)nc2)[C@H](CC)CN1c1cc(=O)n(C)c2cn(CC#N)nc12 (single isomer, unassigned) [Compound A353a]
2490	797	CC[C@H]1CN(C(C)c2ccc(F)nc2)[C@H](CC)CN1c1cc(=O)n(C)c2cn(CC#N)nc12 (single isomer, unassigned) [Compound A353b]
3130	996	CC[C@H]1CN(C(C)c2ncc(C(F)(F)F)cc2F)[C@H](CC)CN1c1cc(=O)n(C)c2cn(CC#N)nc12 (single isomer, unassigned) [Compound A354a]
260	130	CC[C@H]1CN(C(C)c2ncc(C(F)(F)F)cc2F)[C@H](CC)CN1c1cc(=O)n(C)c2cn(CC#N)nc12 (single isomer, unassigned) [Compound A354b]
6420	10900	CC[C@H]1CN(C(C)c2cnc(C)c(C)n2)[C@H](CC)CN1c1cc(=O)n(C)c2cn(CC#N)nc12 (single isomer, unassigned) [Compound A355a]
176	2150	CC[C@H]1CN(C(C)c2cnc(C)c(C)n2)[C@H](CC)CN1c1cc(=O)n(C)c2cn(CC#N)nc12 (single isomer, unassigned) [Compound A355b]
2540	2450	CC[C@H]1CN(C(C)c2cnc3c(n2)CCCC3)[C@H](CC)CN1c1cc(=O)n(C)c2cn(CC#N)nc12 (single isomer, unassigned) [Compound A357a]
12	646	CC[C@H]1CN(C(C)c2cnc3c(n2)CCCC3)[C@H](CC)CN1c1cc(=O)n(C)c2cn(CC#N)nc12 (single isomer, unassigned) [Compound A357b]
3800	142	CC[C@H]1CN(C(C)c2ccc(Cl)cn2)[C@H](CC)CN1c1cc(=O)n(C)c2cn(CC#N)nc12 (single isomer, unassigned) [Compound A360a]
134	2.7	CC[C@H]1CN(C(C)c2ccc(Cl)cn2)[C@H](CC)CN1c1cc(=O)n(C)c2cn(CC#N)nc12 (single isomer, unassigned) [Compound A360b]
2510	922	CC[C@H]1CN(C(C)c2ncc(OC(F)(F)F)cc2F)[C@H](CC)CN1c1cc(=O)n(C)c2cn(CC#N)nc12 (single isomer, unassigned) [Compound A362a]
300	33	CC[C@H]1CN(C(C)c2ncc(OC(F)(F)F)cc2F)[C@H](CC)CN1c1cc(=O)n(C)c2cn(CC#N)nc12 (single isomer, unassigned) [Compound A362b]
6650	4900	CC[C@H]1CN(C(C)c2cc3cnccc3cn2)[C@H](CC)CN1c1cc(=O)n(C)c2cn(CC#N)nc12 (single isomer, unassigned) [Compound A368a]
382	91	CC[C@H]1CN(C(C)c2cc3cnccc3cn2)[C@H](CC)CN1c1cc(=O)n(C)c2cn(CC#N)nc12 (single isomer, unassigned) [Compound A368b]
290	459	CC[C@H]1CN(C(C)c2ccc(CN3CCC(F)(F)CC3)nc2)[C@H](CC)CN1c1cc(=O)n(C)c2cn(CC#N)nc12 (single isomer, unassigned) [Compound A381a]
2330	2090	CC[C@H]1CN(C(C)c2ccc(CN3CCC(F)(F)CC3)nc2)[C@H](CC)CN1c1cc(=O)n(C)c2cn(CC#N)nc12 (single isomer, unassigned) [Compound A381b]
158	245	CC[C@H]1CN(C(C)c2ccc(CN3CCOCC3)cc2)[C@H](CC)CN1c1cc(=O)n(C)c2cn(CC#N)nc12 (single isomer, unassigned) [Compound A383a]
1480	1320	CC#CCn1cc2c(n1)c(N1C[C@@H](CC)N(C(C)c3ccc4c(c3)OC(F)(F)O4)C[C@@H]1C)cc(=O)n2C (single isomer, unassigned) [Compound A392a]
> 10000	1070	CC#CCn1cc2c(n1)c(N1C[C@@H](CC)N(C(C)c3ccc4c(c3)OC(F)(F)O4)C[C@@H]1C)cc(=O)n2C (single isomer, unassigned) [Compound A392b]
5400	454	CC#CCn1cc2c(n1)c(N1C[C@@H](CC)N(C(C)c3cnc4ccccc4n3)C[C@@H]1C)cc(=O)n2C (single isomer, unassigned) [Compound A394a]
125	30	CC#CCn1cc2c(n1)c(N1C[C@@H](CC)N(C(C)c3cnc4ccccc4n3)C[C@@H]1C)cc(=O)n2C (single isomer, unassigned) [Compound A394b]
> 150000	1800	CC(c1ccc2nccnc2c1)N1C[C@H](C)N(c2cc(=O)n(C)c3c[nH]nc23)C[C@H]1C (stereo partly drawn) [Compound A1, 7-((2S,5R)-2,5-dimethyl-4-(1-(quinoxalin-6-yl)ethyl)piperazin-1-yl)-4-methyl-2,4-dihydro-5H-pyrazolo[4,3-b]pyridin-5-one]
3800	3200	CC(c1ccc2nccnc2c1)N1C[C@H](C)N(c2cc(=O)n(C)c3cn(C)nc23)C[C@H]1C (stereo partly shown) [Compound A3]
3500	21000	COCCn1cc2c(n1)c(N1C[C@@H](C)N(C(C)c3ccc4nccnc4c3)C[C@@H]1C)cc(=O)n2C (stereo partly shown) [Compound A5]
> 150000	> 150000	CC(c1ccc2nccnc2c1)N1C[C@H](C)N(c2cc(=O)n(C)c3cn(CC(N)=O)nc23)C[C@H]1C (stereo partly shown) [Compound A6]
1030	> 10000	COC(=O)Cn1cc2c(n1)c(N1C[C@@H](C)N(C(C)c3ccc4nccnc4c3)C[C@@H]1C)cc(=O)n2C (stereo partly shown) [Compound A7]
570	31000	CC(c1ccc2nccnc2c1)N1C[C@H](C)N(c2cc(=O)n(C)c3cn(C(C)C#N)nc23)C[C@H]1C (stereo partly shown) [Compound A8]
30000	27000	CC(c1ccc2nccnc2c1)N1C[C@H](C)N(c2cc(=O)n(C)c3cn(CCO)nc23)C[C@H]1C (stereo partly shown) [Compound A9]

SMILES	IC50 (DGKζ) [nM]	IC50 (DGKα) [nM]
C[C@@H]1CN(c2cc(=O)n(C)c3cn(CC#N)nc23)[C@@H](C)CN1[C@@H](C)c1ccc2nccnc2c1 [Compound A2a, 2-(7-((2S,5R)-2,5-dimethyl-4-((S)-1-(quinoxalin-6-yl)ethyl)piperazin-1-yl)-4-methyl-5-oxo-4,5-dihydro-2H-pyrazolo[4,3-b]pyridin-2-yl)acetonitrile]	52	4800
C[C@@H]1CN(c2cc(=O)n(C)c3cn(CC#N)nc23)[C@@H](C)CN1[C@H](C)c1ccc2nccnc2c1 [Compound A2b, 2-(7-((2S,5R)-2,5-dimethyl-4-((R)-1-(quinoxalin-6-yl)ethyl)piperazin-1-yl)-4-methyl-5-oxo-4,5-dihydro-2H-pyrazolo[4,3-b]pyridin-2-yl)acetonitrile]	13000	19000
